pIC50: −log10 of the molar value.
How the values were obtained:
SW620 xenograft = assay: Anti-tumor study in mice, SW620 xenograft; format: in vivo; conditions: 50 mg/kg
Protocol: Mice are acquired from Taconic Farms and are maintained in Microisolator cages at 72±2° F. with a 12 hour light/dark cycle. Animals are housed at 4 mice per cage (28×17×12 cm ) and are given food and water ad libitum. Animals are numbered through the use of an ear punch or tail tattoo. All animal handling is done in a laminar flow hood.
SW620, available from the American Type Culture Collection, are grown in media consisting of RPMI 1640 with fetal bovine serum (10%), sodium pyruvate (1.0 mM) and glutamine (2.0 mM). Cells are incubated at 37° C. in 5% CO2. Cells are harvested with trypsin (0.05%), centrifuged, and resuspended in PBS:matrigel (1:1) at 1×10^7 cell/ml.
One of the tumor cell lines used is the colon line SW620. Tumors are initiated by subcutaneous injection of a cell suspension into the right flank of each mouse. The inoculum consists of 2×10^6 cells/mouse/ 0.2 ml in PBS:matrigel (1:1).
Solid tumors are measured by caliper measurement through the skin. Caliper measurements are typically made twice weekly. Tumor weight is calculated using the equation (length×width^2 /2)=mg tumor weight.
Compounds are prepared in a vehicle consisting of DMSO, Cremophore and PBS.
Drug therapy begins when the average tumor size is approximately 40-50 mg, which usually is day 7 after implant. […] Drugs are administered at 3 or 4 dose-levels based upon the previously-determined maximally tolerated dose. […]

Human cRaf1 = target: T1, Human cRaf1 (Homo sapiens, UniProt P04049); assay: Raf kinase assay (cRaf1 assay / Raf/MEK cascade assay); format: biochemical; conditions: Table 3; read-out: Raf Kinase activity
T1 construct: poly-histidine (C); made in house
T1 sequence (P04049 whole entry): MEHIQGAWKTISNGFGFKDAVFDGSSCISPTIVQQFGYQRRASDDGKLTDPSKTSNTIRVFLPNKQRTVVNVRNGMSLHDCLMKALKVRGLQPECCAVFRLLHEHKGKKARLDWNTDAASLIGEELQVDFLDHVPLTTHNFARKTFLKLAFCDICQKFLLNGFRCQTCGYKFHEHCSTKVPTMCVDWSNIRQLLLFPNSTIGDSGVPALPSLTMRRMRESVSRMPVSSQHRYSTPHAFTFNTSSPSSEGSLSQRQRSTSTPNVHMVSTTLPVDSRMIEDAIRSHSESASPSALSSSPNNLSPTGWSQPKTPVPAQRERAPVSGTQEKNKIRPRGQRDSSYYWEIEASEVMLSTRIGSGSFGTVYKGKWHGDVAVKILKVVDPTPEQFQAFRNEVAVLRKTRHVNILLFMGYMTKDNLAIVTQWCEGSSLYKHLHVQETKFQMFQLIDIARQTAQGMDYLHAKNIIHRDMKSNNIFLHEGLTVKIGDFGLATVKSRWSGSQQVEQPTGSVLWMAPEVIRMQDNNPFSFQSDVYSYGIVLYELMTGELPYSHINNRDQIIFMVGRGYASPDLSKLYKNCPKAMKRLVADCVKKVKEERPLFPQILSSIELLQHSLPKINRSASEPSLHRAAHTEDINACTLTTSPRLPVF

CCN(CC)CC(=O)c1ccc2c(c1)C(=Cc1cc(Cl)c(O)c(Cl)c1)C(=O)N2 [Example 85, 3-(3,5-Dichloro-4-hydroxy-benzylidene)-5-(2-diethylamino-acetyl)-1,3-dihydro-indol-2-one]
Tumor Response % Inhibition @ mg/kg (SW620 xenograft): 40% | pIC50 (Human cRaf1): > 6.00

— patent US6268391A, “Benzylidene-1,3-dihydro-indol-2-one derivatives a receptor tyrosine kinase inhibitors, particularly of Raf kinases” (Glaxo Wellcome Inc., priority 1997, dated 2001)
